Assay [1] addresses Tubulin (Bos taurus, UniProt Q6B856+Q862L2+Q862F3). As to the kind of experiment: Inhibition of bovine brain tubulin polymerization after 20 mins by turbidimetric analysis.
Assay [2] deals with A549. Briefly: cells. To be noted: Homo sapiens, A549, 24 h.
Description: Antiproliferative activity against human A549 cells assessed as reduction in cell viability after 24 hrs by MTT assay
Assay [3] has as its system MCF7. Briefly: cells. To be noted: Homo sapiens, MCF7, 24 h.
Description: Antiproliferative activity against human MCF7 cells assessed as reduction in cell viability after 24 hrs by MTT assay
Assay [4] concerns HepG2. As to the kind of experiment: cells. The note with it: Homo sapiens, HepG2, 24 h.
Description: Antiproliferative activity against human HepG2 cells assessed as reduction in cell viability after 24 hrs by MTT assay

`COc1ccc(C2=NN(C(=O)c3ccc(Br)cc3)C(c3ccc4c(c3)OCO4)C2)cc1OC` (stereo not given): the IC50 in assay [1] worked out at 22.06 µM; in assay [2], 3.19 µM; in assay [3] it was 4.46 µM; in assay [4], 6.26 µM.

As for `COc1cc(C(=O)N2N=C(c3ccc(Br)cc3)CC2c2ccc3c(c2)OCO3)cc(OC)c1OC` (stereo not given), the IC50 worked out at 19.45 µM in assay [1], 4.21 µM in assay [2], 6.37 µM in assay [3] and 5.25 µM in assay [4].

Take `COc1ccc(C2=NN(C(=O)c3ccc(Cl)cc3)C(c3ccc4c(c3)OCO4)C2)cc1` (stereo not given): the IC50 in assay [1] was over 40 µM; in assay [2], 7.14 µM; in assay [3], 8.66 µM; in assay [4], 8.38 µM.

Take `COc1ccccc1C1=NN(C(=O)c2cc(OC)c(OC)c(OC)c2)C(c2ccc3c(c2)OCO3)C1` (stereo not given): the IC50 in assay [1] stood at 2.35 µM; in assay [2] it was 0.11 µM; in assay [3], 0.21 µM; in assay [4], 0.12 µM.

Consider `COc1cc(C(=O)N2N=C(c3cccc(C)c3)CC2c2ccc3c(c2)OCO3)cc(OC)c1OC` (stereo not given), for which the 50% inhibitory concentration (IC50) came to 7.08 µM in assay [1], 5.08 µM in assay [2], 7.34 µM in assay [3] and 5.17 µM in assay [4].

As to `COc1cc(C2=NN(C(=O)c3ccc(Cl)cc3)C(c3ccc4c(c3)OCO4)C2)cc(OC)c1OC` (stereo not given), the IC50 in assay [1] is 21.73 µM; in assay [2] it was 4.26 µM; in assay [3], 4.77 µM; in assay [4] it was 2.14 µM.

On to `COc1ccc(C2=NN(C(=O)c3ccc(OC)c(OC)c3)C(c3ccc4c(c3)OCO4)C2)cc1` (stereo not given), for which the IC50 came out at 15.73 µM in assay [1], 2.73 µM in assay [2], 3.56 µM in assay [3] and 3.77 µM in assay [4].

`COc1ccc(C(=O)N2N=C(c3ccc(OC)cc3)CC2c2ccc3c(c2)OCO3)cc1` (stereo not given): the IC50 in assay [1] came out at 25.79 µM; in assay [2], 4.08 µM; in assay [3] it was 6.41 µM; in assay [4] it was 5.05 µM.

For `COc1ccc(C2=NN(C(=O)c3cc(OC)c(OC)c(OC)c3)C(c3ccc4c(c3)OCO4)C2)cc1OC` (stereo not given), the IC50 in assay [1] was found to be 2.13 µM; in assay [2] it was 0.08 µM; in assay [3] it was 0.07 µM; in assay [4] it was 0.06 µM.

For `COc1cc(C(=O)N2N=C(c3ccccc3)CC2c2ccc3c(c2)OCO3)cc(OC)c1OC` (stereo not given), the IC50 in assay [1] turned out to be 15.63 µM; in assay [2] it was 2.19 µM; in assay [3], 3.38 µM; in assay [4], 2.24 µM.

On to `COc1cc(C(=O)N2N=C(c3ccc(C)cc3)CC2c2ccc3c(c2)OCO3)cc(OC)c1OC` (stereo not given), for which the IC50 in assay [1] was 10.11 µM; in assay [2] it was 1.14 µM; in assay [3] it was 2.35 µM; in assay [4], 2.91 µM.

On to `COc1cc(C(=O)N2N=C(c3cccc(Cl)c3)CC2c2ccc3c(c2)OCO3)cc(OC)c1OC` (stereo not given), for which the IC50 in assay [1] is over 40 µM; in assay [2], 7.11 µM; in assay [3], 9.23 µM; in assay [4], 7.15 µM.

On to `COc1cc(C(=O)N2N=C(c3ccc(F)cc3)CC2c2ccc3c(c2)OCO3)cc(OC)c1OC` (stereo not given), for which the IC50 in assay [1] came to 7.89 µM; in assay [2] it was 0.76 µM; in assay [3], 0.32 µM; in assay [4] it was 0.25 µM.

For the compound `O=C(c1ccc(Br)cc1)N1N=C(c2ccccc2)CC1c1ccc2c(c1)OCO2` (stereo not given), the IC50 in assay [1] was over 40 µM; in assay [2], over 10 µM; in assay [3], over 10 µM; in assay [4], over 10 µM.

For `CCOc1ccc(C2=NN(C(=O)c3cc(OC)c(OC)c(OC)c3)C(c3ccc4c(c3)OCO4)C2)cc1` (stereo not given), the IC50 in assay [1] is 2.19 µM; in assay [2] it was 0.09 µM; in assay [3], 0.17 µM; in assay [4], 0.07 µM.

As for `O=C(c1ccc(Br)cc1)N1N=C(c2ccc(Br)cc2)CC1c1ccc2c(c1)OCO2` (stereo not given), the IC50 is over 40 µM in assay [1], over 10 µM in assay [2], over 10 µM in assay [3] and over 10 µM in assay [4].

Regarding `COc1cc(C(=O)N2N=C(c3cc(OC)c(OC)c(OC)c3)CC2c2ccc3c(c2)OCO3)cc(OC)c1OC` (stereo not given), the IC50 in assay [1] amounted to 11.37 µM; in assay [2], 2.23 µM; in assay [3], 3.26 µM; in assay [4], 3.15 µM.

As to `COc1ccc(C2=NN(C(=O)c3ccc(Br)cc3)C(c3ccc4c(c3)OCO4)C2)cc1` (stereo not given), the IC50 was over 40 µM in assay [1], over 10 µM in assay [2], over 10 µM in assay [3] and over 10 µM in assay [4].

For `O=C(c1ccc(Br)cc1)N1N=C(c2ccc(F)cc2)CC1c1ccc2c(c1)OCO2` (stereo not given), the IC50 is over 40 µM in assay [1], 2.45 µM in assay [2], 5.11 µM in assay [3] and over 10 µM in assay [4].

As to `Cc1cccc(C2=NN(C(=O)c3ccc(Br)cc3)C(c3ccc4c(c3)OCO4)C2)c1` (stereo not given), the IC50 is over 40 µM in assay [1], over 10 µM in assay [2], over 10 µM in assay [3] and over 10 µM in assay [4].

As to `CCOc1ccc(C2=NN(C(=O)c3ccc(Br)cc3)C(c3ccc4c(c3)OCO4)C2)cc1` (stereo not given), the IC50 in assay [1] was over 40 µM; in assay [2] it was over 10 µM; in assay [3] it was over 10 µM; in assay [4], over 10 µM.

Consider `COc1ccc(C2=NN(C(=O)c3ccc(F)cc3)C(c3ccc4c(c3)OCO4)C2)cc1` (stereo not given), for which the IC50 in assay [1] was 7.69 µM; in assay [2], 1.08 µM; in assay [3] it was 1.77 µM; in assay [4], 1.86 µM.

As for `COc1cccc(C2=NN(C(=O)c3ccc(Br)cc3)C(c3ccc4c(c3)OCO4)C2)c1` (stereo not given), the IC50 was over 40 µM in assay [1], over 10 µM in assay [2], over 10 µM in assay [3] and over 10 µM in assay [4].

For `COc1cccc(C2=NN(C(=O)c3cc(OC)c(OC)c(OC)c3)C(c3ccc4c(c3)OCO4)C2)c1` (stereo not given), the IC50 came to 1.91 µM in assay [1], 0.09 µM in assay [2], 0.06 µM in assay [3] and 0.07 µM in assay [4].

On to `COc1cc(C2=NN(C(=O)c3ccc(F)cc3)C(c3ccc4c(c3)OCO4)C2)cc(OC)c1OC` (stereo not given), for which the IC50 in assay [1] is 2.09 µM; in assay [2] it was 0.78 µM; in assay [3], 0.22 µM; in assay [4], 1.06 µM.

Regarding `COc1ccc(C2=NN(C(=O)c3ccccc3)C(c3ccc4c(c3)OCO4)C2)cc1` (stereo not given), the IC50 came out at 35.45 µM in assay [1], 5.21 µM in assay [2], 5.37 µM in assay [3] and 6.25 µM in assay [4].

For the compound `COc1ccccc1C1=NN(C(=O)c2ccc(Br)cc2)C(c2ccc3c(c2)OCO3)C1` (stereo not given), the IC50 was over 40 µM in assay [1], over 10 µM in assay [2], over 10 µM in assay [3] and over 10 µM in assay [4].

For `COc1cc(C(=O)N2N=C(c3ccc(Cl)cc3)CC2c2ccc3c(c2)OCO3)cc(OC)c1OC` (stereo not given), the IC50 was found to be 18.02 µM in assay [1], 3.08 µM in assay [2], 4.26 µM in assay [3] and 3.16 µM in assay [4].

Take `COc1cc(C2=NN(C(=O)c3ccc(Br)cc3)C(c3ccc4c(c3)OCO4)C2)cc(OC)c1OC` (stereo not given): the IC50 turned out to be 25.06 µM in assay [1], 4.16 µM in assay [2], 5.26 µM in assay [3] and 6.22 µM in assay [4].

For `COc1ccc(C2=NN(C(=O)c3cccc(OC)c3)C(c3ccc4c(c3)OCO4)C2)cc1` (stereo not given), the IC50 in assay [1] came to 34.77 µM; in assay [2], 6.17 µM; in assay [3] it was 8.22 µM; in assay [4], 6.25 µM.

For the compound `Cc1ccc(C2=NN(C(=O)c3ccc(Br)cc3)C(c3ccc4c(c3)OCO4)C2)cc1` (stereo not given), the IC50 in assay [1] was over 40 µM; in assay [2] it was over 10 µM; in assay [3], over 10 µM; in assay [4], over 10 µM.

In the case of `O=C(c1ccc(Br)cc1)N1N=C(c2ccc(Cl)cc2)CC1c1ccc2c(c1)OCO2` (stereo not given), the IC50 in assay [1] is over 40 µM; in assay [2] it was over 10 µM; in assay [3] it was over 10 µM; in assay [4], over 10 µM.

With `COc1ccc(/C=C\c2cc(OC)c(OC)c(OC)c2)cc1O` [COMBRETASTATIN A4], the IC50 in assay [2] was 0.14 µM; in assay [4] it was 0.17 µM.

The values above are taken from ChEMBL document CHEMBL3425471, “Design, synthesis and biological evaluation of novel pyrazoline-containing derivatives as potential tubulin assembling inhibitors” (Eur J Med Chem, 2015).
